Read-outs that look alike come from different tables or passages of the source.

The text below walks through data of patent US4017534A, “16-Fluoro-11-deoxy-13-dihydro-prostaglandin” (American Cyanamid Company, priority 1975, dated 1977).

Data set [1] deals with bronchospasms elicited by intravenous injections of histamine. Nature of the data set: Bronchodilator activity (Konzett assay, intravenous) against histamine. The format is in vivo, guinea pigs. The conditions noted are these: Cavia porcellus, guinea pig, spasmogen histamine, read-out: Bronchodilator Activity (Konzett Assays) ED50, histamine. The method, then:
(§1) The compounds of this invention are useful as bronchodilators for the treatment of asthma and chronic bronchitis. Bronchodilator activity is determined in guinea pigs against bronchospasms elicited by intravenous injections of 5-hydroxytryptamine, histamine or acetylcholine by the Konzett procedure. [See J. Lulling, P. Lievens, F. El Sayed and J. Prignot, Arzneimittel-Forschung, 18, 995 (1968).]
(§2) In Table A which follows bronchodilator activity for representative compounds of this invention against one or more of three spasmogenic agents is expressed as an ED50 determined from the results obtained with three logarithmic cumulative intravenous doses.

The next data set has as its system cough. Nature of the data set: Cough induction by aerosol in human. The format is in vivo. The method, then: (§3) The novel ketals of this invention also show bronchodilator activity when administered by aerosol to dogs wherein bronchoconstriction was induced by administration of pilocarpine. […] This is very important since coughing is one of the damaging side effects reported in the literature when prostaglandin aerosols are administered to human subjects. [See Y. Kawakami et al., European Journal Clinical Pharmacology, 6, 127 (1973); M. F. Cuthbert, Brit. Med. Journ. 723 (Dec. 20, 1969); H. Herxheimer and I. Roetscher, European Journal Clinical Pharmacology, 3, 123 (1971).]

Data set [2] deals with bronchospasms elicited by intravenous injections of acetylcholine. Nature of the data set: Bronchodilator activity (Konzett assay, intravenous) against acetylcholine. In kind it is in vivo, guinea pigs. The conditions noted are these: Cavia porcellus, guinea pig, spasmogen acetylcholine, read-out: Bronchodilator Activity (Konzett Assays) ED50, acetylcholine. The method, then: as §1, §2

The test system of data set [3] is bronchospasms elicited by intravenous injections of 5-hydroxytryptamine. Description: Bronchodilator activity (Konzett assay, intravenous) against 5-hydroxytryptamine. The format is in vivo, guinea pigs. The conditions noted are these: Cavia porcellus, guinea pig, spasmogen 5-hydroxytryptamine, read-out: Bronchodilator Activity (Konzett Assays) ED50, 5-hydroxytryptamine. The method, then: as §1, §2

Data set [4] concerns basal gastric acid secretion. Description: Inhibition of total acid output in the acute gastric fistula rat. In kind it is in vivo, Female Sprague-Dawley rats. The conditions noted are these: intraduodenal route; for ED50: Rattus norvegicus, Table C. The protocol: The compounds of this invention are also useful as inhibitors of gastric acid secretion and peptic ulcer formation and may be used for the treatment of gastric hyperacidity, gastric erosion, and peptic ulcer. Inhibition of basal gastric acid secretion can be determined by the following procedure.
Female Sprague-Dawley rats weighting 140-160 grams are fasted in individual cages for 18-24 hours. The rats are then lightly anesthetized with ether and their front teeth extracted to avoid destruction of the plastic cannula. A midline incision is then made and the stomach and duodenum exposed. A flanged polyvinyl tube is inserted into the fundic portion of the stomach and secured with a purse string suture line using 4-O Mersilene. The rat is then dosed by injection of the compound into the duodenum (1.0 ml. per 100 gram body weight). After dosing, the abdominal wall and skin are closed using metal wound clips. The rate is replaced in a cage containing a longitudinal slit to allow the polyvinyl tube to hang freely. An 8 ml. plastic collecting tube is attached to the flanged cannula and hangs freely below the cage. The first 30 minute sample is discarded designating this time as zero. The collecting tube is attached again and samples removed at the end of 60 and 120 minutes. These samples are referred to as "A" and "B" in the table. The hourly samples are then transferred to a 15 ml. centrifuge and centrifuged for 5-10 minutes. Total and sediment volume are then recorded with the supernatent volume being used as volume of secretion. A 1 ml. or less aliquot is then removed and placed in a 50 ml. beaker containing 10 ml. of distilled water. This sample is then titrated using 0.01N NaOH to pH 7.0 using a Beckman zeromatic pH meter. Volume, titratable acidity (meg.L) and total acid output (μeg/hour) are recorded. Percent inhibition is determined by comparison with the appropriate control. Groups of three rats were used for preliminary testing, and groups of six rats were used for dose-response evaluations. All compounds are administered in a vehicle consisting of 0.5% methocel, 0.4% tween 80, and saline at a constant volume of 1 ml./100 gram rat. Samples are dispersed by sonification. Percent inhibition is calculated on basis of concurrent vehicle control.
In Table B which follows is given the effect on total acid output after 120 minutes of a 10 mg./kg. dose of representative ketals of this invention. For comparison the result obtained with the corresponding 9-oxo derivative, l 9-oxo-15(S)-hydroxyprostanoic acid is included.
Dose response evaluation in the acute gastric fistual rat assay further illustrates the pronounced advantage of the novel ketals of this invention as gastric acid secretion inhibitors relative to the corresponding 9-oxo derivative.

The subject of data set [5] is bronchoconstriction induced by administration of pilocarpine. Description: Bronchodilator activity by aerosol in dogs. In kind it is in vivo. The protocol:
as §3

The subject of data set [6] is bronchospasms elicited by 5-hydroxytryptamine. Description: Bronchodilator activity (intraduodenal route) against 5-hydroxytryptamine. The format is in vivo, guinea pigs. More on the design: key: 0: no activity; +: minimal activity; ++++: maximum activity. The conditions noted are these: intraduodenal dose 3.2 mg./kg. The method, then: as §1
(§4) In Table A' which follows bronchodilator activity for representative compounds of this invention against one or more of three spasmogenic agents is reported. In this assay candidate compounds are suspended in 10% gum arabic solution and the suspension is administered by the intraduodenal route. The activity of the compound at any one dose is then investigated throughout the following hour (see above-cited reference, J. Lulling et al.). Potency is then reported as O, +, ++, +++, or ++++, wherein 0 represents no activity, + minimal activity and ++++ maximum activity.

The test system of data set [7] is bronchospasms elicited by acetylcholine. Description: Bronchodilator activity (intraduodenal route) against acetylcholine. The conditions noted are these: intraduodenal dose 3.2 mg./kg. In kind it is in vivo, guinea pigs. More on the design: key: 0: no activity; +: minimal activity; ++++: maximum activity. The method, then: as §1, §4

Consider `CCCCC[C@H](O)CC[C@H]1CCC2(OCCO2)[C@@H]1CCCCCCC(=O)O` [l-9,9-(ethylenedioxy)-15(S)-hydroxy-prostanoic acid], for which the ED50 (in general, the dose at which the effect has come halfway, by size or by number of responders) in data set [1] is 0.000376 mg/kg; in data set [2] it was 0.0274 mg/kg; in data set [3] it was 0.00253 mg/kg; in data set [4] (1 hr. collection, read-out: ED50, 1 hr. collection (A)), 1 mg/kg; in data set [4] (2 hr. collection, read-out: ED50, 2 hr. collection (B)), 2.3 mg/kg. The “induction of cough by aerosol” value with cough was “does not induce cough”. For the same compound, the inhibition in vivo at 10 mg/kg in data set [4] (2 h, 10 mg./kg., rat, read-out: %-Inhibition of Total Acid Output After 120 Minutes) was 63%. In data set [5] (aerosol concentration 0.032%), the “bronchodilator activity by aerosol” value is listed as “fully-present”. The “potency of the ketal relative to the ketone” value in data set [5] (aerosol, versus l 9-oxo-15(S)-hydroxyprostanoic acid) is “at least 10 times”.
For `CCCCC[C@H](O)CC[C@H]1CCC2(OCCCO2)[C@@H]1CCCCCCC(=O)O` [l-15(S)-hydroxy-9,9-(propylenedioxy)-prostanoic acid], the “Bronchodilator potency, Spasmogenic Agent 5-Hydroxytryptamine” value in data set [6] was “+”. Moreover, the “Bronchodilator potency, Spasmogenic Agent Acetylcholine” value in data set [7] is “+”.
